Test system: RLE-6TN cells
Test: RLE-6TN cell survival under hyperoxia and recovery, viable cells counted by trypan blue exclusion
Format: cell-based, rat
Experimental: FIG. 7. […] The cells were cultured in DMEM/F12 with 10% FBS in 21% O2 and 5% CO2 overnight. […] The viable cells are counted immediately after 72-hour hyperoxia exposure. Cell viability is assessed with trypan blue. The amount of viable cells under specific conditions is presented as a percentage of the cell number from hyperoxia alone. Data are mean±s.d. of four independent experiments with *=P<0.05; **=P<0.01.
FIG. 8. […] In both (A) and (B), the number of viable cells under specific conditions is presented as a percentage of the cell number related to hyperoxia alone in the same experiment. Data are mean s.d. of four independent experiments with *=P<0.05; **=P<0.01.
FIG. 10. HO-1 upregulation is required for T3-increased RLE-6TN cell survival in hyperoxia. […] The cells were then collected for Western Blot analysis. (B) The cells were incubated in 21% O2 and 5% CO2 for 72 hours in the present of HO-1 inhibitor Tin Protoporphyrin IX (10^−6M). […] Cell viability is assessed with trypan blue. The number of viable cells under specific conditions is presented as a percentage of the cell number related to hyperoxia alone. Data are mean±s.d. of three independent experiments with *=P<0.05; **=P<0.01.
FIG. 11. PI3K inhibitor wortmannin blocked T3-induced cell survival in hyperoxia. […] Cell viability is assessed with trypan blue. The number of viable cells under specific conditions is presented as a percentage of the cell number related to hyperoxia alone. Data are mean±s.d. of four independent experiments with *=P<0.05; **=P<0.01.
At the end of the hyperoxia exposure period, the viable cells were counted by trypan blue dye exclusion.

SMILES | number of viable AT2 cells at 48 hours of recovery (90% oxygen for 24 or 48 hours, compound present only during recovery in 21% O2) | effect on cell survival under hyperoxia (90% oxygen for 72 hours, 10^−6M) | AT2 cell number in room air (21% O2 for 72 hours, Tin Protoporphyrin IX 10^−6M) | effect on T3-caused increase in cell survival in hyperoxia (90% O2 72 hours, T3 10^−6M with Tin Protoporphyrin IX 10^−6M)
N[C@@H](Cc1ccc(Oc2cc(I)c(O)c(I)c2)c(I)c1)C(=O)O [rT3] | no protective effect | no role in cell survival |  | 
C=Cc1c2[n-]c(c1C)/C=c1\[n-]/c(c(C)c1C=C)=C\c1[n-]c(c(CCC(=O)O)c1C)C=c1[n-]/c(c(C)c1CCC(=O)O)=C\2.[Sn+4] [Tin protoporphyrin, Tin Protoporphyrin IX] |  |  | no effect on AT2 cell number in room air | blocked the T3-caused increase in cell survival and augmented cell death

Source: patent US20220265775A1, “COMPOSITIONS AND METHODS FOR TREATING PULMONARY EDEMA OR LUNG INFLAMMATION” (priority 2019, published 2022)
